Key:
[1] = system: incision pain model; assay: Incision pain model in SD rats, Von Frey test; format: in vivo; settings: SD rats, Mean + SEM, n = 10
Description: Experimental Example 7: Pharmacodynamic effect study of compounds in incision pain model in SD rats
Experimental animals: SD rats, male, 180-220 g.
(§1) Compound preparation: 5% (final preparation volume) of DMSO was added to dissolve the test compound, and then 10% (final preparation volume) of Cremophor EL and 85% Saline were sequentially added.
(§2) A plantar incision pain model was established in rats via surgery before the administration and test. Rats were placed in an anesthesia induction chamber and given 3%-4% isoflurane for anesthesia induction. After the anesthesia induction, a breathing mask was applied, and the isoflurane concentration was adjusted to 1%-2% to prevent the rats from suffering pain during the surgery. Each rat was placed in a supine position, and the surgical site was disinfected with alcohol and iodophor. Under sterile conditions, a 0.5 cm longitudinal incision was made on the left hind paw surface, 0.2 cm away from the heel, extending toward the toes. The skin and fascia were incised; the plantar muscle was separated, slightly lifted, and longitudinally incised. The skin was then sutured with 5-0 sutures and disinfected.
(§3) 2. Administration and test
(§4) The Von Frey test was performed once before the surgery. On the second day after animal modeling, the test was repeated, and animals meeting the baseline requirements were selected for enrollment. The animals were randomly divided into 6 groups based on the 50% PWT values, with 10 animals per group. Administration was performed under a double-blind test protocol. The 50% PWT of the animals was measured separately before administration (baseline) and at 0.5 h, 2 h, 4 h, 6 h, or 8 h after administration, and a single dose was administered. The model control group was given normal saline, while the compound groups were given the compounds according to the administration doses in the table below.

[2] = system: formalin pain model; assay: Rat formalin pain model; format: in vivo, SD rats; settings: SD rats, 125 mg/kg p.o. 120 min before 5% formalin, Mean + SD, n = 10
Description: Experimental Example 10: Pharmacodynamic effect study of compounds in rat formalin pain model
Experimental animals: SD rats, male, 180-200 g.
(§5) Compound preparation: 5% (final preparation volume) of DMSO was added to dissolve the test compound, and then 10% (final preparation volume) of Cremophor EL and 85% Saline were sequentially added; an appropriate amount of Etoricoxib was weighed, 5% (final preparation volume) of DMSO was added to dissolve the test compound, and then 5% (final preparation volume) of HS-15 and 90% Saline were sequentially added; the tramadol injection was diluted with normal saline to the desired concentration.
Each group consisted of 10 animals, and 50 µL of a 5% formalin solution was injected using a microsyringe into the right plantar region.
as §3
Based on different pharmacokinetic properties of the drugs, the administration was performed at 0 min, 60 min, and 120 min before modeling. After injection of the formalin, the number of pain responses in the rats was observed. […] Spontaneous pain responses were observed once every 5 min, and the number of pain responses in the rats within 1 min was counted, with a total observation duration of 60 min. Inhibition rate = (number of pain responses in control group - number of pain responses in administration group)/number of pain responses in control group × 100%.
Table 12. Administration information of compounds of the present disclosure in rat formalin model

[3] = system: acetic acid writhing model; assay: Mouse acetic acid writhing model; format: in vivo, ICR mice; settings: ICR mice, Dose 50 mg/kg
Description: Experimental Example 11: Pharmacodynamic effect study of compounds in mouse acetic acid writhing model
Experimental animals: ICR mice, male, 20-24 g.
as §5, with “added.” for “added; the tramadol injection was diluted with normal saline to the desired concentration.”
• 1. The mice were randomly grouped based on the body weight for model establishment, with 10 animals per group. A 0.8% (v/v) acetic acid solution was intraperitoneally injected at an injection volume of 10 mL/kg. • 2. Administration and test
Administration was performed 60 min before modeling. After the acetic acid solution was injected, the number of writhing responses in mice was observed. […] The number of writhing responses was observed and recorded during two intervals: 0-15 min and 15-30 min, with a total observation duration of 30 min. Inhibition rate = (number of writhing responses in control group - number of writhing responses in administration group)/number of writhing responses in control group × 100%. The model control group was given normal saline, the positive control group 1 was given etoricoxib at 20 mg/kg, the positive control group 2 was given VX-548 at 50 mg/kg, and the remaining groups were given the compounds of the present disclosure according to the administration doses in the table below.

[4] = target: T1, Nav1.8 channels (Homo sapiens, UniProt Q9Y5Y9); assay: Manual patch-clamp, current of stably overexpressed Nav1.8 channels (resting state voltage program); format: cell-based
T1 construct: expressed in transfected cells
In short: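 Whole-cell manual patch clamp on cells stably overexpressing Nav1.8, held at -120 mV and stepped to 0 mV for 50 ms every 20 s (resting-state protocol). Compounds were perfused in ascending concentrations, each for 5 min or until stable; block of peak current was calculated at steady state.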

[5] = system: incision pain model; assay: Incision pain model in ICR mice, Von Frey test; format: in vivo; settings: 50 mg/kg single dose, Mean + SEM, n = 10
[6] = system: incision pain model; assay: Incision pain model in ICR mice, Von Frey test; format: in vivo; settings: Mean + SEM, n = 10; for PWT 50% value (g) Post-surgery, Preadministration / PWT 50% value (g) Pre-surgery: 50 mg/kg group; for PWT 50% value (g) Post-surgery, Preadministration: baseline before administration; for PWT 50% value (g) Pre-surgery: baseline before surgery; for PWT 50% value (g) 0.5 h / PWT 50% value (g) 2 h / PWT 50% value (g) 4 h: 50 mg/kg single dose; for PWT 50% value (g) 0.5 h: 0.5 h after administration; for PWT 50% value (g) 2 h: 2 h after administration; for PWT 50% value (g) 4 h: 4 h after administration
Description: Experimental Example 6: Pharmacodynamic effect study of compounds in incision pain model in ICR mice Experimental animals: ICR mice, male, 28-35 g.
as §1
as §2, with “in mice” for “in rats”, “test. Mice” for “test. Rats”, “the mice” for “the rats”, “Each mouse” for “Each rat”
as §3
The Von Frey test was performed once before the surgery. On the second day after animal modeling, the test was repeated, and animals meeting the baseline requirements were selected for enrollment. The animals were randomly grouped based on the 50% PWT values, with 10 animals per group. Administration was performed under a double-blind test protocol. The 50% PWT of the animals was measured separately before administration (baseline) and at 0.5 h, 2 h, and 4 h after administration, and a single dose was administered. The model control group was given normal saline, while the compound groups were given the compounds according to the administration doses in the table below.

[7] = system: CFA-induced rat inflammatory pain model; assay: CFA-induced rat inflammatory pain model, Von Frey test; format: in vivo, SD rats; settings: SD rats CFA, Mean + SEM, n = 10
Description: Experimental Example 9: Pharmacodynamic effect study of compounds in CFA-induced rat inflammatory pain model Experimental animals: SD rats, male, 180-220 g.
Compound preparation: 5% (final preparation volume) of DMSO was added to dissolve the test compound, and then 10% (final preparation volume) of Cremophor EL and 85% Saline were sequentially added; an appropriate amount of Celecoxib was weighed, 5% (final preparation volume) of DMSO was added to dissolve the test compound, and then 5% (final preparation volume) of HS-15 and 90% Saline were sequentially added.
SD rats were anesthetized with isoflurane. The right hind paw was disinfected, a needle was inserted subcutaneously at the posterior plantar aspect, and 50 µL of complete Freund's adjuvant (CFA, 1 mg/mL) was administered via subcutaneous injection at the midplantar region, with the needle withdrawn slowly while rotating to prevent leakage. After modeling, local redness and swelling of the soles of the feet, difficulty in walking, and lifting of the affected feet were observed.
as §3
as §4, with “modeling,” for “modeling, the test was repeated, and”, “and” for “4 h, 6 h, or”, “administration.” for “administration, and a single dose was administered.”

T1 sequence (Q9Y5Y9 whole entry): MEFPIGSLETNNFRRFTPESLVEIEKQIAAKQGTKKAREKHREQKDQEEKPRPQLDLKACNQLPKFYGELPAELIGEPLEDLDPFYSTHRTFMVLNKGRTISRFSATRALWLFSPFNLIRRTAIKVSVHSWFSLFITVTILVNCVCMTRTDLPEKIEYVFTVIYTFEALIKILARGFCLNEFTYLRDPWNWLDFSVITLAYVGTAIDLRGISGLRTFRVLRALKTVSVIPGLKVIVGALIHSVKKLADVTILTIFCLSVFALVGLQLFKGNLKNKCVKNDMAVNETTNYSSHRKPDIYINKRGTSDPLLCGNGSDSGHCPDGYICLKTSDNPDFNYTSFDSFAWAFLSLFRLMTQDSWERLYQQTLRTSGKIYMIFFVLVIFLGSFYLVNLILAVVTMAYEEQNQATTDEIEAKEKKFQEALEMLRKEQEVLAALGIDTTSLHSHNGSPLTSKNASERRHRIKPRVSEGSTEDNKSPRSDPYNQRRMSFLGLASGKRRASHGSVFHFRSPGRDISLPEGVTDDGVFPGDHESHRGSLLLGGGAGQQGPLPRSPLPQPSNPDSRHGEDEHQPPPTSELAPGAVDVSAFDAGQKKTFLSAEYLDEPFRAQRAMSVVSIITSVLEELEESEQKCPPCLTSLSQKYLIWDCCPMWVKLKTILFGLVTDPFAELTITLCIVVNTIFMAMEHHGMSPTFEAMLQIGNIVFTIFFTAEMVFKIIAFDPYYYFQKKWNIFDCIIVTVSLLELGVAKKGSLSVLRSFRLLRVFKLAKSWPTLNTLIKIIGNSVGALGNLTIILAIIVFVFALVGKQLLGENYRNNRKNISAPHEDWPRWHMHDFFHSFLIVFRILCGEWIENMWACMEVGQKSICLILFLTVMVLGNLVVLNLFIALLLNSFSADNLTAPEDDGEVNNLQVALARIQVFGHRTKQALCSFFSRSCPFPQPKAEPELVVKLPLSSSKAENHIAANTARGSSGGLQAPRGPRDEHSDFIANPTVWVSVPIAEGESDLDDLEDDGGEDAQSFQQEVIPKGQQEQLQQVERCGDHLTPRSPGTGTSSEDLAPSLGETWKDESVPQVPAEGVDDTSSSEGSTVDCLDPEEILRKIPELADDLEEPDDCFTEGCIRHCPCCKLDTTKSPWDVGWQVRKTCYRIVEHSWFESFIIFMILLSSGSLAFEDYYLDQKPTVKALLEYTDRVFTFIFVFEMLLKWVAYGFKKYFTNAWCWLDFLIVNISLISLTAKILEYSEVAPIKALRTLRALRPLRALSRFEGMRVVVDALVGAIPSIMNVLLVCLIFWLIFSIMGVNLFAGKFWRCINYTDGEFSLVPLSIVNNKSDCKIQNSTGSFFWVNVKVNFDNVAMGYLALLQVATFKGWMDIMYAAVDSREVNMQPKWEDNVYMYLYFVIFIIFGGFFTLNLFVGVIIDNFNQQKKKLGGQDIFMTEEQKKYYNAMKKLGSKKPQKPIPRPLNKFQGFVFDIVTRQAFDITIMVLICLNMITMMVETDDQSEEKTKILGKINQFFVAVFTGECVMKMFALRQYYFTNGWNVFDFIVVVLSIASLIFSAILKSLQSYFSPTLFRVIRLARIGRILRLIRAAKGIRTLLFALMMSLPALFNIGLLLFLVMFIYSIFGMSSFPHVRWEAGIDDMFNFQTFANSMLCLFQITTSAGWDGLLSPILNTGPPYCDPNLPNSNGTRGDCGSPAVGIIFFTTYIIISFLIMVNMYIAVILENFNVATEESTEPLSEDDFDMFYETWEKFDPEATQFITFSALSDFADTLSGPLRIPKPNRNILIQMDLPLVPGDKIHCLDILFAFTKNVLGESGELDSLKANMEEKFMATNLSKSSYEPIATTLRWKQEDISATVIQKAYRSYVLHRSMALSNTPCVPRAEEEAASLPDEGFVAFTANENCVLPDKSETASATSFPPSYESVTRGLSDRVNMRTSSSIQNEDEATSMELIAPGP

COc1c([C@H]2[C@H](C(=O)Nc3ccnc(C(N)=O)c3)O[C@@](C)(C(F)(F)F)[C@H]2C)ccc(F)c1F [VX-548, reference compound]
PWT 50% value (g) Post-surgery, Preadministration ([1]; 125 mg/kg group, baseline before administration): 3.95 ± 1.19 g
PWT 50% value (g) Pre-surgery ([1]; 125 mg/kg group, baseline before surgery): 14.09 ± 1.46 g
PWT 50% value (g) Time 0.5 h ([1]; 125 mg/kg single dose, 0.5 h after administration): 7.61 ± 5.9 g
PWT 50% value (g) Time 2 h ([1]; 125 mg/kg single dose, 2 h after administration): 8.97 ± 3.33 g
PWT 50% value (g) Time 6 h ([1]; 125 mg/kg single dose, 6 h after administration): 6.27 ± 2.34 g
PWT 50% value (g) Time 8 h ([1]; 125 mg/kg single dose, 8 h after administration): 5.89 ± 2.07 g
PWT 50% value (g) AUC0-8h ([1]; 125 mg/kg single dose): 58.66 ± 10.33 g
Number of pain responses 0 min ([2]; 0 min): 24.3±8.5
Number of pain responses 10 min ([2]; 10 min): 2.4±2.8
Number of pain responses 15 min ([2]; 15 min): 8.8±6.4
Number of pain responses 30 min ([2]; 30 min): 13.2±6.3
Number of pain responses 40 min ([2]; 40 min): 10.1±6.9
Number of pain responses 50 min ([2]; 50 min): 4.1±4.7
Number of pain responses 60 min ([2]; 60 min): 4.7±5.6
Number of writhing responses ([3]; 60 min before 0.8% acetic acid i.p., 30 min observation, Mean + SD, n = 10): 29±16
Inhibition rate (%) ([3]; inhibition of writhing responses vs control group): 41.24%

COc1c([C@@H]2C[C@](C)(C(F)(F)F)S[C@H]2C(=O)Nc2ccnc(NC#N)c2)ccc(F)c1F [a-34-A, (2R,3S,5R)-N-(2-cyanoaminopyridin-4-yl)-3-(3,4-difluoro-2-methoxyphenyl)-5-methyl-5-(trifluoromethyl)tetrahydrothiophene-2-carboxamide]
IC50 [4]: 0.04 nM
PWT 50% value (g) AUC0-8h [5]: 2.81 ± 0.57 g·h
PWT 50% value (g) Post-surgery, Preadministration [6]: 0.24 ± 0.03 g
PWT 50% value (g) Pre-surgery [6]: 1.41 ± 0.33 g
PWT 50% value (g) 0.5 h [6]: 0.32 ± 0.15 g
PWT 50% value (g) 2 h [6]: 0.51 ± 0.15 g
PWT 50% value (g) 4 h [6]: 0.35 ± 0.16 g

CO/N=C(\N)c1cc(NC(=O)[C@@H]2S[C@@](C)(C(F)(F)F)C[C@H]2c2ccc(F)c(F)c2OC)ccn1 [a-57-A]
IC50 [4]: 0.023 nM
PWT 50% value (g) AUC0-8h [5]: 4.4 ± 0.41 g·h
PWT 50% value (g) Post-surgery, Preadministration [6]: 0.22 ± 0.02 g
PWT 50% value (g) Pre-surgery [6]: 1.29 ± 0.22 g
PWT 50% value (g) 0.5 h [6]: 0.43 ± 0.18 g
PWT 50% value (g) 2 h [6]: 0.38 ± 0.14 g
PWT 50% value (g) 4 h [6]: 0.29 ± 0.11 g

COc1c([C@@H]2C[C@](C)(C(F)(F)F)S[C@H]2C(=O)Nc2cccc(S(=O)(=O)N=[N+]=[N-])c2)ccc(F)c1F [a-65-A, 3-((2R,3S,5R)-3-(3,4-difluoro-2-methoxyphenyl)-5-methyl-5-(trifluoromethyl)tetrahydrothiophene-2-carboxamido)benzenesulfonyl azide]
IC50 [4]: 0.017 nM
PWT 50% value (g) AUC0-8h [5]: 4.87 ± 0.97 g·h
PWT 50% value (g) Post-surgery, Preadministration [6]: 0.22 ± 0.02 g
PWT 50% value (g) Pre-surgery [6]: 1.13 ± 0.08 g
PWT 50% value (g) 0.5 h [6]: 0.38 ± 0.16 g
PWT 50% value (g) 2 h [6]: 0.43 ± 0.17 g
PWT 50% value (g) 4 h [6]: 0.51 ± 0.2 g

Cc1ccc(-c2cc(C(F)(F)F)nn2-c2ccc(S(N)(=O)=O)cc2)cc1 [Celecoxib, reference compound]
PWT 50% value (g) Post-surgery, Preadministration ([7]; 80 mg/kg group, baseline before administration): 3.12 ± 1.14 g
PWT 50% value (g) Pre-surgery ([7]; 80 mg/kg group, baseline before modeling): 11.74 ± 2.33 g
PWT 50% value (g) Time 0.5 h ([7]; 80 mg/kg, 0.5 h after administration): 5.91 ± 4.09 g
PWT 50% value (g) Time 2 h ([7]; 80 mg/kg, 2 h after administration): 4.66 ± 1.69 g
PWT 50% value (g) Time 8 h ([7]; 80 mg/kg, 8 h after administration): 3.4 ± 1.38 g
PWT 50% value (g) AUC0-8h ([7]; 80 mg/kg): 40.7 ± 15.63 g
